Data set [1] is described as follows: Dynamic Vapor Sorption (DVS). The class given is physicochemical. To be noted: for hygroscopicity of the material (DVS): 25° C.; for Post-DVS analysis by XRPD: after DVS cycle at 25° C. The procedure:
DVS data was collected on a Vsorp Dynamic Moisture Sorption Analyzer (ProUmid GmbH & Co. KG, Germany). The sample was placed into a tared sample chamber and automatically weighed. • Sample temperature: 25° C. • Cycle: Full cycle • Adsorption: 0, 10, 20, 30, 40, 50, 60, 70, 80, 90 • Desorption: 80, 70, 60, 50, 40, 30, 20, 10, 0 • Characterize the sample after the DVS experiment by XRPD
Alternatively, DVS analysis was carried out using a Surface Measurement System DVS Intrinsic analyzer. The instrument was calibrated with standard weights. Approximately 15-20 mg of sample was loaded into a pan for analysis. The sample was analyzed at 25° C. in 10% relative humidity (RH) steps from 50% to 95% RH (adsorption cycle), from 95% to 0% RH (desorption cycle), and from 0% to 50% RH (adsorption cycle). The movement from one step to the next occurred either after satisfying the equilibrium criterion of 0.002% weight change (dm/dt) or, if the equilibrium criterion was not met, after ten hours. Samples after the DVS test were tested by XRPD.

The nature of data set [2]: Competitive slurry experiments of Compound 1 adipate, Forms 1, 2 and 3. The data set is classed as physicochemical. The settings on record: from the competitive slurry experiments. The procedure: The resulting solid was collected by filtration and analyzed by XRPD.
A mixed sample of Compound 1 adipate, […] and Compound 1 adipate, Form 2 was suspended in solvents (40 mg, 0.5 mL) and stirred at 50° C. for 1 h. The resulting solid was collected by filtration and analyzed by XRPD.

Data set [3] is described as follows: Stability test of Compound 1 adipate, Form 1 (HPLC purity and XRPD after storage). To be noted: for XRPD (crystal form at day 7): after 7 days storage. The data set is classed as physicochemical. As to the method: Samples were prepared in duplicate for each condition. At day 7, the samples were analyzed by HPLC and XRPD to check the purity and the crystal form, respectively.

Data set [4] can be described thus: Pharmacokinetics following oral administration in male cynomolgus monkeys. The data set is classed as in vivo. The settings on record: for AUC/Dose: in ng·h/mL per mg/kg; for Cmax: read-out: C0/Cmax. As to the method:
The gavage tube was flushed with 5 mL of vehicle after administration of the dose. Plasma samples were collected at the following time points: 15 min, 30 min, 1 hr, 2 hr, 4 hr, 6 hr, 8 hr and 24 hr postdose. The concentrations of Compound 1 were determined in plasma.

The mark [5] stands for this setting: male, cynomolgus monkey, plasma, po, 50 mg/kg, PO BID, 50 mg/kg BID.

Molecules are shown by their SMILES. Several values for one entry are separate records, joined by “and”; a condition that tells them apart may be missing. Equal entries are not always repeated. Structures can show the parent of a compound that is named as a salt. Where two headings read alike, the source gives them in different places.

In general, Tmax refers to the time at which the peak concentration occurs. What is called half-life is how long it takes for the measured level to halve. A higher half-life goes with slow loss. For orientation: AUC(0-t) means the area under the concentration-time curve up to a stated or last time point. As for `CNc1cc(Nc2cc(F)cc3c2OCCO3)nc2c(NC(=O)N[C@@H]3C[C@@H]3F)cnn12` [Compound 1 adipate, Form 1, 1-(5-((7-fluoro-2,3-dihydrobenzo[b][1,4]dioxin-5-yl)amino)-7-(methylamino)pyrazolo[1,5-a]pyrimidin-3-yl)-3-((1R,2S)-2-fluorocyclopropyl)urea adipate], the “hygroscopicity of the material (DVS)” value in data set [1] was “non-hygroscopic”. Moreover, the “water uptake (DVS)” value in data set [1] (80% RH and 25° C.) is “less than 0.2%”. Also, in data set [1], the “Post-DVS analysis by XRPD” value is given as “no change”. The “relative stability among the three Compound 1 adipate forms” value in data set [2] was “most stable form”. The HPLC purity in data set [3] (40° C./75% RH (open) @ 7 d, duplicate, batch from DMSO/EtOAc/EtOH) was 99.75 and 99.86; in data set [3] (40° C./75% RH (open) @ 7 d, duplicate, batch from DMSO/EtOH/Water) it was 99.64 and 99.65; in data set [3] (40° C./75% RH (open) @ 7 d, duplicate, batch from acetone/water (19/1)), 99.43 and 99.44; in data set [3] (60° C./capped @ 7 d, duplicate, batch from DMSO/EtOAc/EtOH), 99.85 and 99.82; in data set [3] (60° C./capped @ 7 d, duplicate, batch from DMSO/EtOH/Water) it was 99.65/99.65; in data set [3] (60° C./capped @ 7 d, duplicate, batch from acetone/water (19/1)), 99.44/99.44. In addition, the HPLC purity is 99.86 in data set [3] (Day 0, batch from DMSO/EtOAc/EtOH (Example 13Ac)); 99.66 in data set [3] (Day 0, batch from DMSO/EtOH/Water (Example 13Ad)); 99.49 in data set [3] (Day 0, batch from acetone/water (19/1) (Example 13Ab)). For the same molecule, the “physical and chemical stability” value in data set [3] (60° C. (capped) and 40° C./75% RH (open) for 1 week) is “both physically and chemically stable”. Besides, the “XRPD (crystal form at day 7)” value in data set [3] (batch from DMSO/EtOAc/EtOH) was “Adipate, Form 1”; in data set [3] (batch from DMSO/EtOH/Water), “Adipate, Form 1”; in data set [3] (batch from acetone/water (19/1)), “Adipate, Form 1”. Further, the “% F (oral bioavailability)” value in data set [4] (PO, 5 mg/kg, Form 1, 5 mg/kg) was 33.6%. Further, the AUClast in data set [4] (PO, 5 mg/kg, Form 1, 5 mg/kg) amounted to 2.347 µg·h/mL. The molecule also returned a C0/Cmax in data set [4] (PO, 5 mg/kg, Form 1, 5 mg/kg) of 0.672 µg/mL. Also, the time to peak (Tmax) in data set [4] (PO, 5 mg/kg, Form 1, 5 mg/kg) came to 2.67 h; in data set [4] (male, cynomolgus monkey, plasma, po, 100 mg/kg, PO, 100 mg/kg, read-out: Tmax), 4.67 h. Besides, the AUC/Dose in data set [4] (PO, 5 mg/kg, Form 1, 5 mg/kg) turned out to be 469; in data set [4] (PO, 100 mg/kg) it was 1083. This molecule also gave a half-life in data set [4] (cynomolgus monkey, plasma, PO, 5 mg/kg) of 2.66 h. This molecule returned an AUC(0-t) in data set [4] (male, cynomolgus monkey, plasma, po, 100 mg/kg) of 108 µg·h/mL. The Cmax in data set [4] (male, cynomolgus monkey, plasma, po, 100 mg/kg, PO, 100 mg/kg) was determined as 9.77 µg/mL. In data set [4] (oral gavage, Table 9), the “PK compared to Compound 1 free base, Form A” value was “faster Tmax and higher AUC”. Moreover, in data set [4] (oral gavage, Table 10), the “PK compared to Compound 1 oxalate, Form 1” value was “faster Tmax, higher AUC, and higher oral bioavailability (% F)”.

On to `CNc1cc(Nc2cc(F)cc3c2OCCO3)nc2c(NC(=O)N[C@@H]3C[C@@H]3F)cnn12` [Compound 1 mesylate, Form 1, 1-(5-((7-fluoro-2,3-dihydrobenzo[b][1,4]dioxin-5-yl)amino)-7-(methylamino)pyrazolo[1,5-a]pyrimidin-3-yl)-3-((1R,2S)-2-fluorocyclopropyl)urea], for which the “water uptake (DVS)” value in data set [1] (95% RH and 25° C.) is reported as 2.65%. The “Post-DVS analysis by XRPD” value in data set [1] is “no change”.

Broadly, the bioavailability is the share of a dose that reaches the circulation, judged against a reference dose that is usually intravenous. For `CNc1cc(Nc2cc(F)cc3c2OCCO3)nc2c(NC(=O)N[C@@H]3C[C@@H]3F)cnn12` [Compound 1 oxalate, Form 1, 1-(5-((7-fluoro-2,3-dihydrobenzo[b][1,4]dioxin-5-yl)amino)-7-(methylamino)pyrazolo[1,5-a]pyrimidin-3-yl)-3-((1R,2S)-2-fluorocyclopropyl)urea], in data set [1], the “hygroscopicity of the material (DVS)” value is recorded as “slightly hygroscopic” and the “Post-DVS analysis by XRPD” value is “no change”. For the same molecule, in data set [1] (80% RH and 25° C.), the “water uptake (DVS)” value is 0.37%. For the same molecule, in data set [4] (PO, 5 mg/kg, Form 1, 5 mg/kg), the C0/Cmax was found to be 0.103 µg/mL and the AUC/Dose was found to be 302. The molecule also gave an exposure AUC(0-t) in data set [4] (male, cynomolgus monkey, plasma, po, 5 mg/kg) of 1.51 µg·h/mL. Besides, in data set [4] (male, cynomolgus monkey, plasma, po, 5 mg/kg, PO, 5 mg/kg, read-out: % F (oral bioavailability)), the bioavailability turned out to be 21.6%. Further, the time of peak concentration (Tmax) in data set [4] (male, cynomolgus monkey, plasma, po, 5 mg/kg, PO, 5 mg/kg, read-out: Tmax) was determined as 4.67 h.

In the case of `CNc1cc(Nc2cc(F)cc3c2OCCO3)nc2c(NC(=O)N[C@@H]3C[C@@H]3F)cnn12` [Compound 1 phosphate, Form 1, 1-(5-((7-fluoro-2,3-dihydrobenzo[b][1,4]dioxin-5-yl)amino)-7-(methylamino)pyrazolo[1,5-a]pyrimidin-3-yl)-3-((1R,2S)-2-fluorocyclopropyl)urea], in data set [1], the “hygroscopicity of the material (DVS)” value is “slightly hygroscopic” and the “Post-DVS analysis by XRPD” value is recorded as “no change”. Moreover, the “water uptake (DVS)” value in data set [1] (80% RH and 25° C.) is recorded as 1.20%.

For the molecule `CNc1cc(Nc2cc(F)cc3c2OCCO3)nc2c(NC(=O)N[C@@H]3C[C@@H]3F)cnn12` [Compound 1, Form A, 1-(5-((7-fluoro-2,3-dihydrobenzo[b][1,4]dioxin-5-yl)amino)-7-(methylamino)pyrazolo[1,5-a]pyrimidin-3-yl)-3-((1R,2S)-2-fluorocyclopropyl)urea], the “water uptake (DVS)” value in data set [1] (95% RH and 25° C.) is reported as 5.08%. The “Post-DVS analysis by XRPD” value in data set [1] is reported as “no change”. The molecule further returned an AUC/Dose in data set [4] (PO BID, 50 mg/kg BID) of 761. In data set [4] (setting [5]), the exposure AUC(0-t) worked out at 76.1 µg·h/mL and the Cmax turned out to be 5.63 µg/mL. Further, the Tmax in data set [4] (male, cynomolgus monkey, plasma, po, 50 mg/kg, PO BID, 50 mg/kg BID, after second dose, read-out: Tmax) came out at 7 h.

For `CNc1cc(Nc2cc(F)cc3c2OCCO3)nc2c(NC(=O)N[C@@H]3C[C@@H]3F)cnn12` [Compound 1, Form B, 1-(5-((7-fluoro-2,3-dihydrobenzo[b][1,4]dioxin-5-yl)amino)-7-(methylamino)pyrazolo[1,5-a]pyrimidin-3-yl)-3-((1R,2S)-2-fluorocyclopropyl)urea], in data set [1] (95% RH and 25° C.), the “water uptake (DVS)” value is 0.68%. Besides, the “Post-DVS analysis by XRPD” value in data set [1] is given as “no change”.

The values above are taken from patent publication US20240010654A1, “CRYSTALLINE FORMS OF A TYK2 INHIBITOR” (Ventyx Biosciences, Inc., priority 2022, published 2024).
